According to US20080070794A1, “Chemical sensors” (The Trustees of Princeton University, priority 2005, published 2008):
Substitutions are numbered along the chain they refer to. Entries after “also recorded” stand apart in the source; their conditions may differ.

What was measured:
Type in all cases: cell-based
[1] = biological target: T1, UDP-glucose receptor 2211 (Homo sapiens, UniProt Q15391, A193V/A252V/A98V/F243I/K54E); test: β-galactosidase reporter assay in yeast, mutant 2211 receptor
T1 construct: The entire UDPG receptor gene was mutagenized via error-prone mutagenesis; expressed in transfected cells; host or cells: Saccharomyces cerevisiae CY10560 (growth) / CY10981 with Cp1021 FUS1-LacZ (β-galactosidase)
T1 sequence (Q15391 1-338 K54E/A98V/A193V/F243I/A252V): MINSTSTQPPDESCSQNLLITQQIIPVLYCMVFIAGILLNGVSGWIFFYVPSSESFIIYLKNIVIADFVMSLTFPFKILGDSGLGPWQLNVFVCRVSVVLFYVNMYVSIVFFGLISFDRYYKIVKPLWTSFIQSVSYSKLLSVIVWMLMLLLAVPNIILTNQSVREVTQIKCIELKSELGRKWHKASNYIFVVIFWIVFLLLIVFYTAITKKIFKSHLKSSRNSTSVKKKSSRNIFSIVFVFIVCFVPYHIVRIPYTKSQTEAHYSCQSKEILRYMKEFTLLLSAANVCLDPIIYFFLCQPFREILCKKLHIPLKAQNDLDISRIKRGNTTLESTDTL
Method: (§1) Strains and plasmids. Mutagenesis and selection were performed in yeast strain […] can1-100 […] […] […] ura3-52). β-Galactosidase assays were performed using yeast strain CY10981 (PFUS1-HIS3 can1-100 […] […] […] ura3-52) carrying plasmid Cp1021 (PFUS1-LacZ 2 μm URA3).

[2] = biological target: T2, UDPG receptor mutant H-20 (Homo sapiens, UniProt Q15391, A193V/A252V/A98V/F243I/I251T/K54E/R253K); test: β-galactosidase reporter assay in yeast, mutant H-20 receptor
T2 construct: The entire UDPG receptor gene was mutagenized via error-prone mutagenesis; expressed in transfected cells; host or cells: Saccharomyces cerevisiae CY10560 (growth) / CY10981 with Cp1021 FUS1-LacZ (β-galactosidase)
T2 sequence (Q15391 1-338 K54E/A98V/A193V/F243I/I251T/A252V/R253K): T1 sequence (Q15391 1-338 K54E/A98V/A193V/F243I/A252V) with I251T, R253K
Method: as §1

UDPG receptor mutant K-3 = biological target: T3, UDPG receptor mutant K-3 (Homo sapiens, UniProt Q15391, A193V/A252V/A98V/E278G/F243I/I251T/K54E/R253K); test: β-galactosidase reporter assay in yeast, mutant K-3 receptor
T3 construct: The entire UDPG receptor gene was mutagenized via error-prone mutagenesis; expressed in transfected cells; host or cells: Saccharomyces cerevisiae CY10560 (growth) / CY10981 with Cp1021 FUS1-LacZ (β-galactosidase)
T3 sequence (Q15391 1-338 K54E/A98V/A193V/F243I/I251T/A252V/R253K/E278G): T1 sequence (Q15391 1-338 K54E/A98V/A193V/F243I/A252V) with I251T, R253K, E278G
Method: as §1

[3] = biological target: T4, wild type UDPG receptor (P2Y14) (Homo sapiens, UniProt Q15391); test: β-galactosidase reporter assay in yeast, wild type receptor
T4 construct: The entire UDPG receptor gene was mutagenized via error-prone mutagenesis; expressed in transfected cells; host or cells: Saccharomyces cerevisiae CY10560 (growth) / CY10981 with Cp1021 FUS1-LacZ (β-galactosidase)
T4 sequence (Q15391 1-338): T1 sequence (Q15391 1-338 K54E/A98V/A193V/F243I/A252V) with E54K, V98A, V193A, I243F, V252A

K-3 mutant = biological target: T5, K-3 mutant (Homo sapiens, UniProt Q15391, A193V/A252V/A98V/E278G/F243I/I251T/K54E/R253K); test: Yeast growth assay, mutant K-3 receptor; conditions: relative to parent H-20
T5 construct: The entire UDPG receptor gene was mutagenized via error-prone mutagenesis; expressed in transfected cells; host or cells: Saccharomyces cerevisiae CY10560 (growth) / CY10981 with Cp1021 FUS1-LacZ (β-galactosidase)
T5 sequence (Q15391 1-338 K54E/A98V/A193V/F243I/I251T/A252V/R253K/E278G): T1 sequence (Q15391 1-338 K54E/A98V/A193V/F243I/A252V) with I251T, R253K, E278G
Excerpt: Targeted mutagenesis and selection of functional receptor mutants. To generate targeted mutants, oligonucleotides with randomized sequences, corresponding to the codons to be mutagenized, were utilized to generate overlapping PCR products. The method and many applicable variations thereof are known in the art.
The HTVK mutant, designated H-20, was selected as the template for mutagenesis of three additional motifs, ‘AxxFY’ and ‘NMY’ in TM3, and ‘KExT’ in TM7.

O=c1ccn([C@@H]2O[C@H](COP(=O)(O)OP(=O)(O)O)[C@@H](O)[C@H]2O)c(=O)[nH]1 [UDP, uridine diphosphate]
agonist/antagonist character at 2211 receptor [1]: weakly activated; also recorded: competitive inhibitor; also recorded: primarily as an antagonist
Slope of the linear fit, Schild regression ([1]; UDP antagonism of UDP-glucose agonist activity, FIG. 2 Panel B): ~0.8
agonist/antagonist character at H-20 receptor [2]: increasingly strong partial agonist
agonist/antagonist character at K-3 receptor (UDPG receptor mutant K-3): at least a partial agonist; also recorded: increasingly strong partial agonist
agonist/antagonist character at wild type receptor [3]: primarily as an antagonist
growth in response to ligand (K-3 mutant): grew in the presence
